Laboratory results reported in patent US6737383B1, “Herbicidal oxadiazolidines” (priority 1999, dated 2004).

Assays:
velvetleaf = assay: Test A velvetleaf; format: in vivo, Abutilon theophrasti; conditions: 0 to 10 scale where 0 is no effect and 10 is complete control
Outline: (§1)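 Visual injury score, 0 (no effect) to 10 (complete control), vs untreated controls at ~11 d in greenhouse. Pre: soil drench on sandy loam. Post: spray to runoff, 1–2 leaf stage.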

morningglory = assay: Test A morningglory; format: in vivo, Ipomoea spp.; conditions: 0 to 10 scale where 0 is no effect and 10 is complete control
Outline: as §1

guineagrass = assay: Test D guineagrass; format: in vivo, Panicum maximum; conditions: Preemergence, 0 to 100 scale
Excerpt: (§2) Seeds, tubers, or plant parts of Alexandergrass (Brachiaria plantaginea), bermuda-grass (Cynodon dactylon), common pursiane (Portulaca oleracea), common ragweed (Ambrosia elatior), common groundsel (Senecio vulgaris), dallisgrass (Paspalum dilatatum), goosegrass (Eleusine indica), guineagrass (Panicum maximum), itchgrass (Rottboellia exaltata), Johnson grass (Sorghum halepense), large crabgrass (Digitaria sanguinalis), pitted morningglory (Ipomoea lacunosa), purple nutsedge (Cyperus rotundus), sandbur (Cenchrus echinatus), sourgrass (Trichachne insularis), Spanishneedles (Bidens bipinnata), surinam grass (Brachiaria decumbens) and tall mallow (Malva sylvestris) were planted into greenhouse pots of flats containing greenhouse planting medium. Plant species were grown in separate pots or individual compartments. Preemergence applications were made within one day of planting the seed or plant part.
(§3) Test chemicals were formulated in a non-phytotoxic solvent mixture which included a surfactant and applied preemergence to the surface of the pot containing seeds in a sandy loam soil. Untreated control pots and treated pots were placed in the greenhouse for growth and visually evaluated for injury 14 to 21 days after herbicide application. Plant response ratings, summarized in Table C, are based on a 0 to 100 scale where 0 is no injury and 100 is complete control. A dash (−) response means no test result.

goosegrass = assay: Test D goosegrass; format: in vivo, Eleusine indica; conditions: Preemergence, 0 to 100 scale
Excerpt: as §2, §3

bermuda-grass = assay: Test D bermudagrass; format: in vivo, Cynodon dactylon; conditions: Preemergence, 0 to 100 scale
Excerpt: as §2, §3

common ragweed = assay: Test D common ragweed; format: in vivo, Ambrosia elatior; conditions: Preemergence, 0 to 100 scale
Excerpt: as §2, §3

Johnson grass = assay: Test D Johnson grass; format: in vivo, Sorghum halepense; conditions: Preemergence, 0 to 100 scale
Outline: (§4)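 Greenhouse pots, sandy loam, single species per pot. Preemergence tests: soil-surface application ≤1 day after planting. Compound formulated in non-phytotoxic solvent with surfactant. Visual rating 14–21 DAT, scale 0–100.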

pitted morningglory = assay: Test D pitted morningglory; format: in vivo, Ipomoea lacunosa; conditions: Preemergence, 0 to 100 scale
Excerpt: as §2
Test chemicals were formulated in a non-phytotoxic solvent mixture which included a surfactant and applied preemergence to the surface of the pot containing seeds in a sandy loam soil. Untreated control pots and treated pots were placed in the greenhouse for growth and visually evaluated for injury 14 to 21 days after herbicide application. […] A dash (−) response means no test result.

purple nutsedge = assay: Test D purple nutsedge; format: in vivo, Cyperus rotundus; conditions: Preemergence, 0 to 100 scale
Outline: as §4

itchgrass = assay: Test D itchgrass; format: in vivo, Rottboellia exaltata; conditions: Preemergence, 0 to 100 scale
Outline: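 Scoring used a 0–100 visual injury scale, with 0 meaning no effect and 100 complete control, assessed 14–21 days after application alongside untreated pots. Preemergence treatments went onto sandy loam surfaces of separately potted seeds within a day of sowing.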

sandbur = assay: Test D sandbur; format: in vivo, Cenchrus echinatus; conditions: Preemergence, 0 to 100 scale
Outline: as §4

common groundsel = assay: Test D common groundsel; format: in vivo, Senecio vulgaris; conditions: Preemergence, 0 to 100 scale
Outline: as §4

large crabgrass = assay: Test D large crabgrass; format: in vivo, Digitaria sanguinalis; conditions: Preemergence, 0 to 100 scale
Outline: as §4

Alexandergrass = assay: Test D Alexandergrass; format: in vivo, Brachiaria plantaginea; conditions: Preemergence, 0 to 100 scale
Excerpt: as §2, §3

[1] = Rate 32 g/ha, 0 no injury, 100 complete control
[2] = Rate 64 g/ha, 0 no injury, 100 complete control
[3] = Rate 125 g/ha, 0 no injury, 100 complete control
[4] = Rate 16 g/ha, 0 no injury, 100 complete control

CCN(CC)C(=O)n1oc(=O)n(-c2ccc(F)cc2)c1=O [Compound 3]
Plant response rating, Velvetleaf (velvetleaf; Postemergence, Rate 1000 g/ha): 0
Plant response rating, Velvetleaf (velvetleaf; Pre-emergence, Rate 2000 g/ha): 0
Plant response rating, Morningglory (morningglory; Postemergence, Rate 1000 g/ha): 0
Plant response rating, Morningglory (morningglory; Pre-emergence, Rate 2000 g/ha): 0

Cc1ccc(-n2c(=O)on(C(=O)N(c3ccc(F)cc3F)C(C)C)c2=O)c(C)c1 [Compound 24]
Plant response rating, Guineagrass (guineagrass; [1]): 60
Plant response rating, Guineagrass (guineagrass; [2]): 75
Plant response rating, Guineagrass (guineagrass; [3]): 90
Plant response rating, Guineagrass (guineagrass; Rate 250 g/ha): 98
Plant response rating, Guineagrass (guineagrass; Rate 500 g/ha): 100
Plant response rating, Goosegrass (goosegrass; [1]): 50
Plant response rating, Goosegrass (goosegrass; [2]): 50
Plant response rating, Goosegrass (goosegrass; [3]): 98
Plant response rating, Goosegrass (goosegrass; Rate 250 g/ha): 98
Plant response rating, Goosegrass (goosegrass; Rate 500 g/ha): 100
Plant response rating, Bermudagrass (bermuda-grass; [1]): 75
Plant response rating, Bermudagrass (bermuda-grass; [2]): 95
Plant response rating, Bermudagrass (bermuda-grass; [3]): 98
Plant response rating, Bermudagrass (bermuda-grass; Rate 250 g/ha): 100
Plant response rating, Bermudagrass (bermuda-grass; Rate 500 g/ha): 100
Plant response rating, C. ragweed (common ragweed; [1]): 0
Plant response rating, C. ragweed (common ragweed; [2]): 0
Plant response rating, C. ragweed (common ragweed; [3]): 0
Plant response rating, C. ragweed (common ragweed; Rate 250 g/ha): 0
Plant response rating, C. ragweed (common ragweed; Rate 500 g/ha): 0
Plant response rating, Johnsongrass (Johnson grass; [1]): 0
Plant response rating, Johnsongrass (Johnson grass; [2]): 0
Plant response rating, Johnsongrass (Johnson grass; [3]): 0
Plant response rating, Johnsongrass (Johnson grass; Rate 250 g/ha): 85
Plant response rating, Johnsongrass (Johnson grass; Rate 500 g/ha): 85
Plant response rating, P. morninglory (pitted morningglory; [1]): 0
Plant response rating, P. morninglory (pitted morningglory; [2]): 0
Plant response rating, P. morninglory (pitted morningglory; [3]): 0
Plant response rating, P. morninglory (pitted morningglory; Rate 250 g/ha): 0
Plant response rating, P. morninglory (pitted morningglory; Rate 500 g/ha): 0
Plant response rating, Purple nutsedge (purple nutsedge; [1]): 0
Purple nutsedge plant response rating (purple nutsedge; [2]): 0
Purple nutsedge plant response rating (purple nutsedge; [3]): 0
Plant response rating, Purple nutsedge (purple nutsedge; Rate 250 g/ha): 0
Plant response rating, Purple nutsedge (purple nutsedge; Rate 500 g/ha): 0
Plant response rating, Itchgrass (itchgrass; [1]): 40
Plant response rating, Itchgrass (itchgrass; [2]): 40
Plant response rating, Itchgrass (itchgrass; [3]): 40
Plant response rating, Itchgrass (itchgrass; Rate 250 g/ha): 40
Plant response rating, Itchgrass (itchgrass; Rate 500 g/ha): 40
Plant response rating, Sandbur (sandbur; [1]): 20
Sandbur plant response rating (sandbur; [2]): 20
Sandbur plant response rating (sandbur; [3]): 20
Plant response rating, Sandbur (sandbur; Rate 250 g/ha): 20
Plant response rating, Sandbur (sandbur; Rate 500 g/ha): 100
Plant response rating, Com. groundsel (common groundsel; [1]): 0
Plant response rating, Com. groundsel (common groundsel; [2]): 0
Plant response rating, Com. groundsel (common groundsel; [3]): 0
Plant response rating, Com. groundsel (common groundsel; Rate 250 g/ha): 0
Plant response rating, Com. groundsel (common groundsel; Rate 500 g/ha): 0
Plant response rating, Large crabgrass (large crabgrass; [1]): 70
Plant response rating, Large crabgrass (large crabgrass; [2]): 70
Plant response rating, Large crabgrass (large crabgrass; [3]): 100
Plant response rating, Large crabgrass (large crabgrass; Rate 250 g/ha): 100
Plant response rating, Large crabgrass (large crabgrass; Rate 500 g/ha): 100
Plant response rating, Alexandergrass (Alexandergrass; [1]): 10
Plant response rating, Alexandergrass (Alexandergrass; [2]): 10
Plant response rating, Alexandergrass (Alexandergrass; [3]): 10
Plant response rating, Alexandergrass (Alexandergrass; Rate 250 g/ha): 65
Plant response rating, Alexandergrass (Alexandergrass; Rate 500 g/ha): 98

CC(C)N(C(=O)n1oc(=O)n(C(C)C)c1=O)c1ccccc1 [Compound 113]
Plant response rating, Guineagrass (guineagrass; [4]): 85
Plant response rating, Guineagrass (guineagrass; [1]): 100
Plant response rating, Guineagrass (guineagrass; [2]): 100
Plant response rating, Guineagrass (guineagrass; [3]): 100
Plant response rating, Goosegrass (goosegrass; [4]): 90
Plant response rating, Goosegrass (goosegrass; [1]): 100
Plant response rating, Goosegrass (goosegrass; [2]): 100
Plant response rating, Goosegrass (goosegrass; [3]): 100
Plant response rating, Bermudagrass (bermuda-grass; [4]): 98
Plant response rating, Bermudagrass (bermuda-grass; [1]): 100
Plant response rating, Bermudagrass (bermuda-grass; [2]): 100
Plant response rating, Bermudagrass (bermuda-grass; [3]): 100
Plant response rating, C. ragweed (common ragweed; [4]): 0
Plant response rating, C. ragweed (common ragweed; [1]): 0
Plant response rating, C. ragweed (common ragweed; [2]): 0
Plant response rating, C. ragweed (common ragweed; [3]): 0
Plant response rating, Johnsongrass (Johnson grass; [4]): 0
Plant response rating, Johnsongrass (Johnson grass; [1]): 60
Plant response rating, Johnsongrass (Johnson grass; [2]): 80
Plant response rating, Johnsongrass (Johnson grass; [3]): 90
Plant response rating, P. morninglory (pitted morningglory; [4]): 10
Plant response rating, P. morninglory (pitted morningglory; [1]): 10
Plant response rating, P. morninglory (pitted morningglory; [2]): 10
Plant response rating, P. morninglory (pitted morningglory; [3]): 10
Plant response rating, Purple nutsedge (purple nutsedge; [4]): 0
Plant response rating, Purple nutsedge (purple nutsedge; [1]): 0
Purple nutsedge plant response rating (purple nutsedge; [2]): 20
Purple nutsedge plant response rating (purple nutsedge; [3]): 30
Plant response rating, Itchgrass (itchgrass; [4]): 10
Plant response rating, Itchgrass (itchgrass; [1]): 40
Plant response rating, Itchgrass (itchgrass; [2]): 50
Plant response rating, Itchgrass (itchgrass; [3]): 60
Plant response rating, Sandbur (sandbur; [4]): 0
Plant response rating, Sandbur (sandbur; [1]): 65
Sandbur plant response rating (sandbur; [2]): 75
Sandbur plant response rating (sandbur; [3]): 100
Plant response rating, Com. groundsel (common groundsel; [4]): 0
Plant response rating, Com. groundsel (common groundsel; [1]): 65
Plant response rating, Com. groundsel (common groundsel; [2]): 100
Plant response rating, Com. groundsel (common groundsel; [3]): 100
Plant response rating, Large crabgrass (large crabgrass; [4]): 85
Plant response rating, Large crabgrass (large crabgrass; [1]): 100
Plant response rating, Large crabgrass (large crabgrass; [2]): 100
Plant response rating, Large crabgrass (large crabgrass; [3]): 100
Plant response rating, Alexandergrass (Alexandergrass; [4]): 65
Plant response rating, Alexandergrass (Alexandergrass; [1]): 85
Plant response rating, Alexandergrass (Alexandergrass; [2]): 98
Plant response rating, Alexandergrass (Alexandergrass; [3]): 98

C=CCn1c(=O)on(C(=O)N(c2ccc(F)cc2F)C2CC2)c1=O [Compound 127]
Plant response rating, Velvetleaf (velvetleaf; Postemergence, Rate 1000 g/ha): 0
Plant response rating, Velvetleaf (velvetleaf; Pre-emergence, Rate 2000 g/ha): 0
Plant response rating, Morningglory (morningglory; Postemergence, Rate 1000 g/ha): 0
Plant response rating, Morningglory (morningglory; Pre-emergence, Rate 2000 g/ha): 0
